Reference: PubChem BioAssay (NCI)
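A five-concentration, 48-hour dose response in 96-well plates underlies each endpoint, interpolated linearly between surrounding concentrations. GI50: concentration for 50% inhibition of growth. TGI denotes the concentration required for complete inhibition of growth.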

How the values were obtained:
Assay in all cases: DTP human tumour cell line panel, 48 h; in the data active = GI50 below about 0.43 µM; inactive = the rest
MALME-3M melanoma = system: MALME-3M melanoma
HOP-62 NSCLC = system: HOP-62 NSCLC
NCI-H522 lung = system: NCI-H522 lung
EKVX NSCLC = system: EKVX NSCLC
SNB-75 CNS = system: SNB-75 CNS
T-47D breast = system: T-47D breast
SNB-19 CNS = system: SNB-19 CNS
MOLT-4 leukemia = system: MOLT-4 leukemia
OVCAR-4 ovarian = system: OVCAR-4 ovarian
NCI/ADR-RES ovarian = system: NCI/ADR-RES ovarian
OVCAR-3 ovarian = system: OVCAR-3 ovarian
MCF7 breast = system: MCF7 breast
K-562 leukemia = system: K-562 leukemia
TK-10 renal = system: TK-10 renal
UO-31 renal = system: UO-31 renal
SW-620 colon = system: SW-620 colon
HOP-92 NSCLC = system: HOP-92 NSCLC
SF-295 CNS = system: SF-295 CNS
NCI-H460 lung = system: NCI-H460 lung
SN12C renal = system: SN12C renal
HS 578T breast = system: HS 578T breast
SF-539 CNS = system: SF-539 CNS
786-0 renal = system: 786-0 renal
HCT-116 colon = system: HCT-116 colon
COLO 205 colon = system: COLO 205 colon
SF-268 CNS = system: SF-268 CNS
SK-OV-3 ovarian = system: SK-OV-3 ovarian
UACC-62 melanoma = system: UACC-62 melanoma
PC-3 prostate = system: PC-3 prostate
M14 melanoma = system: M14 melanoma
BT-549 breast = system: BT-549 breast
UACC-257 melanoma = system: UACC-257 melanoma
IGROV1 ovarian = system: IGROV1 ovarian
SK-MEL-2 melanoma = system: SK-MEL-2 melanoma
CAKI-1 renal = system: CAKI-1 renal
A498 renal = system: A498 renal
RXF 393 renal = system: RXF 393 renal
MDA-MB-231 breast = system: MDA-MB-231 breast
MDA-MB-435 = system: MDA-MB-435
A549 NSCLC = system: A549 NSCLC
DU-145 prostate = system: DU-145 prostate
NCI-H23 lung = system: NCI-H23 lung
OVCAR-5 ovarian = system: OVCAR-5 ovarian
HCT-15 colon = system: HCT-15 colon
HCC-2998 colon = system: HCC-2998 colon
HT29 colon = system: HT29 colon
KM12 colon = system: KM12 colon
ACHN renal = system: ACHN renal
U251 CNS = system: U251 CNS
SK-MEL-28 melanoma = system: SK-MEL-28 melanoma
NCI-H226 lung = system: NCI-H226 lung
LOX IMVI melanoma = system: LOX IMVI melanoma
RPMI-8226 leukemia = system: RPMI-8226 leukemia
SK-MEL-5 melanoma = system: SK-MEL-5 melanoma
OVCAR-8 ovarian = system: OVCAR-8 ovarian

N#Cc1ccccc1C#C/C=C\C#Cc1cccs1
46 µM: TGI (HCT-116 colon)
62.5 µM: TGI (TK-10 renal)
inactive: GI50 (MALME-3M melanoma) 19.5 µM | GI50 (HOP-62 NSCLC) 16.5 µM | GI50 (NCI-H522 lung) 36.8 µM | GI50 (EKVX NSCLC) 24.8 µM | GI50 (SNB-75 CNS) 26.2 µM | GI50 (T-47D breast) 12.6 µM | GI50 (SNB-19 CNS) 45.8 µM | GI50 (MOLT-4 leukemia) 8.19 µM | GI50 (OVCAR-4 ovarian) 34.9 µM | GI50 (NCI/ADR-RES ovarian) 25.4 µM | GI50 (OVCAR-3 ovarian) 14.1 µM | GI50 (MCF7 breast) 6.07 µM | GI50 (K-562 leukemia) 6.46 µM | GI50 (TK-10 renal) 20.7 µM | GI50 (UO-31 renal) 46.5 µM | GI50 (SW-620 colon) 7.78 µM | GI50 (HOP-92 NSCLC) 25.8 µM | GI50 (SF-295 CNS) 13.8 µM | GI50 (NCI-H460 lung) 21.9 µM | GI50 (SN12C renal) 33 µM | GI50 (HS 578T breast) 8.03 µM | GI50 (SF-539 CNS) 14.4 µM | GI50 (786-0 renal) 29.4 µM | GI50 (HCT-116 colon) 11.7 µM | GI50 (COLO 205 colon) 14.3 µM | GI50 (SF-268 CNS) 19.1 µM | GI50 (SK-OV-3 ovarian) 28.9 µM | GI50 (UACC-62 melanoma) 12.3 µM | GI50 (PC-3 prostate) 28.6 µM | GI50 (M14 melanoma) 11.4 µM | GI50 (BT-549 breast) 12.2 µM | GI50 (UACC-257 melanoma) 32.5 µM | GI50 (IGROV1 ovarian) 42.7 µM | GI50 (SK-MEL-2 melanoma) 62.8 µM | GI50 (CAKI-1 renal) 16 µM | GI50 (A498 renal) 18.5 µM | GI50 (RXF 393 renal) 14.9 µM | GI50 (MDA-MB-231 breast) 26.1 µM | GI50 (MDA-MB-435) 2.11 µM | GI50 (A549 NSCLC) 25 µM | GI50 (DU-145 prostate) 19.7 µM | GI50 (NCI-H23 lung) 33.2 µM | GI50 (OVCAR-5 ovarian) 70.7 µM | GI50 (HCT-15 colon) 14.5 µM | GI50 (HCC-2998 colon) 28.3 µM | GI50 (HT29 colon) 11.8 µM | GI50 (KM12 colon) 3.93 µM | GI50 (ACHN renal) 32 µM | GI50 (U251 CNS) 16.4 µM | GI50 (SK-MEL-28 melanoma) 14.8 µM | GI50 (NCI-H226 lung) 47 µM | GI50 (LOX IMVI melanoma) 15.7 µM | GI50 (RPMI-8226 leukemia) 11.1 µM | GI50 (SK-MEL-5 melanoma) 14.5 µM | GI50 (OVCAR-8 ovarian) 30.3 µM
> 100 µM: TGI (NCI-H522 lung) | TGI (EKVX NSCLC) | TGI (SNB-75 CNS) | TGI (T-47D breast) | TGI (SNB-19 CNS) | TGI (MOLT-4 leukemia) | TGI (OVCAR-4 ovarian) | TGI (NCI/ADR-RES ovarian) | TGI (K-562 leukemia) | TGI (UO-31 renal) | TGI (SW-620 colon) | TGI (HOP-92 NSCLC) | TGI (SN12C renal) | TGI (SK-OV-3 ovarian) | TGI (UACC-62 melanoma) | TGI (PC-3 prostate) | TGI (UACC-257 melanoma) | TGI (IGROV1 ovarian) | TGI (SK-MEL-2 melanoma) | TGI (MDA-MB-231 breast) | TGI (A549 NSCLC) | TGI (NCI-H23 lung) | TGI (OVCAR-5 ovarian) | TGI (HCC-2998 colon) | TGI (HT29 colon) | TGI (ACHN renal) | TGI (SK-MEL-28 melanoma) | TGI (NCI-H226 lung) | TGI (OVCAR-8 ovarian)
83.1 µM: TGI (HCT-15 colon)
16.8 µM: TGI (KM12 colon)
78 µM: TGI (CAKI-1 renal)
67.1 µM: TGI (U251 CNS)
39 µM: TGI (SK-MEL-5 melanoma)
31.9 µM: TGI (SF-295 CNS)
55.7 µM: TGI (SF-268 CNS)
48.1 µM: TGI (MALME-3M melanoma) | TGI (RXF 393 renal)
4.35 µM: TGI (MDA-MB-435)
56.5 µM: TGI (M14 melanoma)
51.2 µM: TGI (RPMI-8226 leukemia)
54.3 µM: TGI (A498 renal)
53.7 µM: TGI (HS 578T breast)
77.3 µM: TGI (DU-145 prostate)
92.4 µM: TGI (LOX IMVI melanoma)
75.8 µM: TGI (NCI-H460 lung)
45.9 µM: TGI (MCF7 breast)
34.1 µM: TGI (SF-539 CNS)
61.4 µM: TGI (HOP-62 NSCLC)
84.1 µM: TGI (786-0 renal)
94.8 µM: TGI (BT-549 breast)
34.2 µM: TGI (OVCAR-3 ovarian)
32.2 µM: TGI (COLO 205 colon)
